From patent US8791102B2, “Acetanilide sphingosine-1-phosphate receptor antagonists” (Exelixis, Inc., priority 2008, dated 2014)

Target: T1, human S1P1 receptors (Homo sapiens, UniProt P21453)
T1 construct: host or cells: HEK293
Experiment: S1P1R antagonist assay (fluorescent membrane potential dye, cAMP readout)
Format: cell-based
Conditions: HEK293 cells expressing human S1P1 receptors and CNG channel; 500 nM NECA; S1P1R agonist 10 nM; 90 minutes; read-out: EC50 or IC50 value
From the text: The S1P1R antagonist assay is a fluorescent membrane potential dye measurement assay, indicative of intracellular cAMP changes due to G protein-coupled receptor activation. HEK293 cells engineered to express human S1P1 receptors and a cyclic nucleotide-gated (CNG) channel are obtained from BD Biosciences, 80300-250. The CNG channels are activated by elevated levels of cAMP, resulting in ion flux and cell membrane depolarization. Membrane depolarization is detected with a membrane potential dye. Stimulation of the cells with 5′-(N-ethylcarboxamido)adenosine (NECA), an A2b receptor agonist (Sigma, E2387), elicits an A2bR-dependent increase in cAMP.
Subsequent exposure of the cells to a S1P1R agonist suppresses the NECA induced increase in cAMP through S1P1R-specific signaling by inhibiting adenylyl cyclase and the formation of cAMP from ATP. The degree to which a test compound overcomes the S1P1R agonist suppression of the NECA induced increase in cAMP is a measure of S1P1R antagonist activity. Antagonist activity is quantified as the IC50 (i.e., the concentration needed to elicited one-half of the maximum response of the test compound) and/or as the EC50 (i.e., the concentration needed to elicited one-half of the NECA induced stimulation).
Day 1: Freshly thawed cells were plated into 384-well plates (Corning, 3683) at a density of 14,000 cells/well in 20 μL, complete media and incubated for 16 hours at 37° C., 5% CO2 and 99% relative humidity. Complete media included Dulbecco's modified Eagle's medium (Invitrogen, 11965-092), 10% Fetal bovine serum (Hyclone, SH30071.03), 250 μg/mL geneticin (Invitrogen, 10131-027), and 1 μg/mL Puromycin (Fluka, 82595).
Day 2: Membrane potential dye (20 μL, BD Biosciences, 341833) was added to each well and the plates were incubated for 2.5 hours at ambient temperature. Test compounds (20 μL) were added to the wells at various concentrations (≦10 μM, 1 to 3 dilutions) in a NECA base solution and incubated for 90 minutes in the presence of the S1P1R agonist {4-((4-phenyl-5-trifluoromethyl-2-thienyl)methoxy)benzyl}-3-azetidinecarboxylic acid (10 nM). The NECA-base solution contained Dulbecco's phosphate-buffered saline (Invitrogen, 14190-136), 2.5% DMSO (Fluka, 41648), 25 μM Ro 20-1724 (Sigma, B8279), and 500 nM NECA).
Assay plates were read with a PerkinElmer EnVision reader (Excitation 350 nm, Emission 590 nm) at time T=0 minutes, before compound addition and at time T=90 minutes. The signal was calculated as the ratio T90/T0. Data was analyzed in ActivityBase XE and graphs showing log of compound concentration (X-axis) vs. % activity (Y-axis) were generated for IC50 determinations. Percent activity was calculated with the following formula: (Signal−Agonist Control Signal)/(NECA Control Signal−Agonist Control Signal)×100.

T1 sequence (P21453 whole entry): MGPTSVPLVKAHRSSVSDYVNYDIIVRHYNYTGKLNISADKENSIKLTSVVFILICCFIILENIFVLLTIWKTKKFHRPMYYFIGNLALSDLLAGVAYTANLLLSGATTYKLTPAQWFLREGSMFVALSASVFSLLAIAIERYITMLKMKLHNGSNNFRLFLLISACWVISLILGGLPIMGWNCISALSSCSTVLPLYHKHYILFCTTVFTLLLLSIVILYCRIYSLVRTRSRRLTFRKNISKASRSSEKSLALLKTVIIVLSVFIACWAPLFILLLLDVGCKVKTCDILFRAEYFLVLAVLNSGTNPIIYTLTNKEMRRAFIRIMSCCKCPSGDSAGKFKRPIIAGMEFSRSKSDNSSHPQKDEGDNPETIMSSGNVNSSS

IC50 [nM] | Structure (SMILES)
> 1000 | CN1CCCC1CC1CCCCN1CC(=O)N[C@@H](COCc1ccccc1)C(=O)Nc1ccc(Oc2ccc(F)cc2)cc1 (stereo in doubt) [Compound 113, (2S)-3-(benzyloxy)-N-(4-(4-fluorophenoxy)phenyl)-2-(2-(2-(((S)-1-methylpyrrolidin-2-yl)methyl)piperidin-1-yl)acetamido)propanamide]
> 1000 | O=C(NC(COCc1ccccc1)C(=O)Nc1ccc(Oc2ccccc2)cc1)c1cc(F)ccc1Br (stereo not shown) [Compound 21, N-(3-(benzyloxy)-1-oxo-1-(4-phenoxyphenylamino)propan-2-yl)-2-bromo-5-fluorobenzamide]
300 to 1000 | O=C(CC(F)(F)F)NC(COCc1ccccc1)C(=O)Nc1ccc(Oc2ccccc2)cc1 (stereo not shown) [Compound 22, N-(3-(benzyloxy)-1-oxo-1-(4-phenoxyphenylamino)propan-2-yl)-3,3,3-trifluoropropanamide]
> 1000 | O=C(Nc1ccc(Oc2ccccc2)cc1)C(COCc1ccccc1)NC(=O)[C@H]1CCCO1 (stereo partly drawn) [Compound 23, (2R)—N-(3-(benzyloxy)-1-oxo-1-(4-phenoxyphenylamino)propan-2-yl)tetrahydrofuran-2-carboxamide]
> 1000 | O=C(Nc1ccc(Oc2ccccc2)cc1)C(COCc1ccccc1)NC(=O)[C@H](O)c1ccccc1Cl (stereo partly drawn) [Compound 24, 3-(benzyloxy)-2-((R)-2-(2-chlorophenyl)-2-hydroxyacetamido)-N-(4-phenoxyphenyl)propanamide]
> 1000 | CC(=O)O[C@@H](C)C(=O)NC(COCc1ccccc1)C(=O)Nc1ccc(Oc2ccccc2)cc1 (stereo partly drawn) [Compound 25, (2S)-1-(3-(benzyloxy)-1-oxo-1-(4-phenoxyphenylamino)propan-2-ylamino)-1-oxopropan-2-yl acetate]
> 1000 | O=C(COc1ccccc1O)NC(COCc1ccccc1)C(=O)Nc1ccc(Oc2ccccc2)cc1 (stereo not shown) [Compound 26, 3-(benzyloxy)-2-(2-(2-hydroxyphenoxy)acetamido)-N-(4-phenoxyphenyl)propanamide]
> 1000 | O=C(Nc1ccc(Oc2ccccc2)cc1)C(COCc1ccccc1)NC(=O)[C@H](O)Cc1ccccc1 (stereo partly drawn) [Compound 27, 3-(benzyloxy)-2-((R)-2-hydroxy-3-phenylpropanamido)-N-(4-phenoxyphenyl)propanamide]
> 1000 | CSc1ncccc1C(=O)NC(COCc1ccccc1)C(=O)Nc1ccc(Oc2ccccc2)cc1 (stereo not shown) [Compound 28, N-(3-(benzyloxy)-1-oxo-1-(4-phenoxyphenylamino)propan-2-yl)-2-(methylthio)nicotinamide]
> 1000 | O=C(NC(COCc1ccccc1)C(=O)Nc1ccc(Oc2ccccc2)cc1)C1CC(=O)N(Cc2ccc(Cl)cc2)C1 (stereo not shown) [Compound 29, N-(3-(benzyloxy)-1-oxo-1-(4-phenoxyphenylamino)propan-2-yl)-1-(4-chlorobenzyl)-5-oxopyrrolidine-3-carboxamide]

The remaining lines, values behind:

Structure (SMILES) | IC50 [nM]
O=C(Cc1cnc[nH]1)N[C@@H](CCCc1ccccc1)C(=O)Nc1ccc(Oc2ccccc2)cc1 [Compound 1, (S)-2-(2-(1H-imidazol-5-yl)acetamido)-5-phenyl-N-(4-phenoxyphenyl)pentanamide] | ≤ 300
O=C(Nc1ccc(Oc2ccc(F)cc2)cc1)[C@@H]1C[C@@H](Cc2ccc(F)cc2Cl)CN1C(=O)Cn1ccnn1 [Compound 2, (2S,4R)-1-(2-(1H-1,2,3-triazol-1-yl)acetyl)-4-(2-chloro-4-fluorobenzyl)-N-(4-(4-fluorophenoxy)phenyl)pyrrolidine-2-carboxamide] | ≤ 300
Cc1ccc(C[C@@H]2C[C@@H](C(=O)Nc3ccc(Oc4ccc(F)cc4)cc3)N(C(=O)Cn3ccnn3)C2)cc1 [Compound 3] | ≤ 300
Cc1ccc(C[C@@H]2C[C@@H](C(=O)Nc3ccc(Oc4ccc(F)cc4)cc3)N(C(=O)Cn3cncn3)C2)cc1 [Compound 4] | ≤ 300
O=C(Nc1ccc(Oc2ccc(F)cc2)cc1)[C@@H]1C[C@@H](Cc2ccc(F)cc2Cl)CN1C(=O)Cn1nccn1 [Compound 5, (2S,4R)-1-(2-(2H-1,2,3-triazol-2-yl)acetyl)-4-(2-chloro-4-fluorobenzyl)-N-(4-(4-fluorophenoxy)phenyl)pyrrolidine-2-carboxamide] | ≤ 300
Cc1cc(F)ccc1C[C@@H]1C[C@@H](C(=O)Nc2ccc(Oc3ccc(F)cc3)cc2)N(C(=O)Cn2ccnn2)C1 [Compound 6, (2S,4R)-1-(2-(1H-1,2,3-triazol-1-yl)acetyl)-4-(4-fluoro-2-methylbenzyl)-N-(4-(4-fluorophenoxy)phenyl)pyrrolidine-2-carboxamide] | ≤ 300
Cc1cc(F)ccc1C[C@@H]1C[C@@H](C(=O)Nc2ccc(Oc3ccc(F)cc3)cc2)N(C(=O)Cn2nccn2)C1 [Compound 7, (2S,4R)-1-(2-(2H-1,2,3-triazol-2-yl)acetyl)-4-(4-fluoro-2-methylbenzyl)-N-(4-(4-fluorophenoxy)phenyl)pyrrolidine-2-carboxamide] | ≤ 300
Cc1cc(F)ccc1C[C@@H]1C[C@@H](C(=O)Nc2ccc(Oc3ccc(F)cc3)cc2)N(C(=O)Cn2cncn2)C1 [Compound 8, (2S,4R)-1-(2-(1H-1,2,4-triazol-1-yl)acetyl)-4-(4-fluoro-2-methylbenzyl)-N-(4-(4-fluorophenoxy)phenyl)pyrrolidine-2-carboxamide] | ≤ 300
O=C(Nc1ccc(Oc2ccc(F)cc2)cc1)[C@@H]1C[C@@H](Cc2ccc(F)cc2Cl)CN1C(=O)Cn1cncn1 [Compound 9, (2S,4R)-1-(2-(1H-1,2,4-triazol-1-yl)acetyl)-4-(2-chloro-4-fluorobenzyl)-N-(4-(4-fluorophenoxy)phenyl)pyrrolidine-2-carboxamide] | ≤ 300
O=C(Nc1ccc(Oc2ccc(F)cc2)cc1)[C@@H]1C[C@@H](Cc2ccccc2)CN1C(=O)Cn1ccnn1 [Compound 10, (2S,4R)-1-(2-(1H-1,2,3-triazol-1-yl)acetyl)-4-benzyl-N-(4-(4-fluorophenoxy)phenyl)pyrrolidine-2-carboxamide] | ≤ 300
Nc1nc(C(F)(F)F)nn1CC(=O)N1C[C@H](Cc2ccccc2)C[C@H]1C(=O)Nc1ccc(Oc2ccc(F)cc2)cc1 [Compound 11, (2S,4R)-1-(2-(5-amino-3-(trifluoromethyl)-1H-1,2,4-triazol-1-yl)acetyl)-4-benzyl-N-(4-(4-fluorophenoxy)phenyl)pyrrolidine-2-carboxamide] | ≤ 300
O=C(Cn1cncn1)N1C[C@H](Cc2ccccc2)C[C@H]1c1nc2cc(Oc3ccc(F)cc3)ccc2[nH]1 [Compound 12, 1-((2S,4R)-4-benzyl-2-(5-(4-fluorophenoxy)-1H-benzo[d]imidazol-2-yl)pyrrolidin-1-yl)-2-(1H-1,2,4-triazol-1-yl)ethanone] | 300 to 1000
O=C(NC(COCc1ccccc1)C(=O)Nc1ccc(Oc2ccccc2)cc1)C(=O)c1ccco1 (stereo not shown) [Compound 14, 3-(benzyloxy)-2-(2-(furan-2-yl)-2-oxoacetamido)-N-(4-phenoxyphenyl)propanamide] | > 1000
O=C(CCCCCN1C(=O)C=CC1=O)NC(COCc1ccccc1)C(=O)Nc1ccc(Oc2ccccc2)cc1 (stereo not shown) [Compound 15, N-(3-(benzyloxy)-1-oxo-1-(4-phenoxyphenylamino)propan-2-yl)-6-(2,5-dioxo-2,5-dihydro-1H-pyrrol-1-yl)hexanamide] | > 1000
CC(=O)Oc1ccc(C(=O)NC(COCc2ccccc2)C(=O)Nc2ccc(Oc3ccccc3)cc2)cc1 (stereo not shown) [Compound 17, 4-(3-(benzyloxy)-1-oxo-1-(4-phenoxyphenylamino)propan-2-ylcarbamoyl)phenyl acetate] | > 1000
Cc1cncc(C(=O)NC(COCc2ccccc2)C(=O)Nc2ccc(Oc3ccccc3)cc2)c1 (stereo not shown) [Compound 18, N-(3-(benzyloxy)-1-oxo-1-(4-phenoxyphenylamino)propan-2-yl)-5-methylnicotinamide] | > 1000
CS(=O)(=O)CC(=O)NC(COCc1ccccc1)C(=O)Nc1ccc(Oc2ccccc2)cc1 (stereo not shown) [Compound 19, 3-(benzyloxy)-2-(2-(methylsulfonyl)acetamido)-N-(4-phenoxyphenyl)propanamide] | > 1000
O=C(NC(COCc1ccccc1)C(=O)Nc1ccc(Oc2ccccc2)cc1)c1ccc2[nH]ccc2c1 (stereo not shown) [Compound 20, N-(3-(benzyloxy)-1-oxo-1-(4-phenoxyphenylamino)propan-2-yl)-1H-indole-5-carboxamide] | > 1000
